Measurements from patent US12622881B2, “Water-soluble topical ophthalmic preparation containing lutein and production method thereof” (Omisan Farmaceutici S.R.L., priority 2021, dated 2026).

Assay: Preliminary tests: lutein added to an aqueous solution under stirring
Type: physicochemical
Conditions: even under strong and prolonged stirring
Description: As noted, lutein, being a lipophilic molecule, is insoluble in water.

CC1=C[C@H](O)CC(C)(C)C1/C=C/C(C)=C/C=C/C(C)=C/C=C/C=C(C)/C=C/C=C(C)/C=C/C1=C(C)C[C@@H](O)CC1(C)C (stereo partly drawn) [lutein, β, ε-caroten-3,3′-diol]
behaviour of lutein in aqueous solution (solubility): for the most part deposits rapidly on the bottom
